Results: ChEMBL document CHEMBL5143760, “Inhibitors of Transforming Growth Factor Beta Receptor 1 (TGFβr1) May Enhance the Efficacy of Several Monoclonal Antibodies as Cancer Therapy” (2022)
Activity calls are given as the source filed them. The calls are words filed in the database; no cut-off is given here.

Columns and labels:
MC-38 [1] = test: Antitumor activity against mouse MC38 cells xenografted in C57BL/6 mouse assessed as inhibition of tumor growth at 30 mg/kg, po twice daily co-administered with anti-PD1-antibody at 5 mg/kg, ip twice weekly for 2 weeks; type: functional, organism-based
MC-38 [2] = test: Antitumor activity against mouse MC38 cells xenografted in C57BL/6 mouse assessed as increase in animal survival at 30 mg/kg, po twice daily co-administered with anti-PD1-antibody at 5 mg/kg, ip twice weekly for 2 weeks; type: functional, organism-based
4T1 [3] = test: Antitumor activity against mouse 4T1 cells xenografted in Balb/cj mouse assessed as inhibition of tumor growth at 30 mg/kg, po twice daily for 21 days relative to control; type: functional; conditions: 4T1, 504 h, time 21 day, read-out: TGI
4T1 [4] = test: Antitumor activity against mouse 4T1 cells xenografted in Balb/cj mouse assessed as inhibition of tumor growth at 30 mg/kg, po twice daily for 21 days in presence of 4-1BB monoclonal antibody relative to control; type: functional; conditions: 4T1, 504 h, time 21 day, read-out: TGI
4T1 [5] = test: Antitumor activity against mouse 4T1 cells xenografted in Balb/cj mouse assessed as inhibition of tumor growth at 30 mg/kg, po twice daily for 21 days in presence of OXO40 monoclonal antibody relative to control; type: functional; conditions: 4T1, 504 h, time 21 day, read-out: TGI
CT26 [6] = test: Antitumor activity against mouse CT26 cells xenografted in Balb/c mouse assessed as time of events at 30 mg/kg, po twice daily for 28 days; type: functional; conditions: time 28 day
CT26 [7] = test: Antitumor activity against mouse CT26 cells xenografted in Balb/c mouse assessed as tumor growth delay at 30 mg/kg, po twice daily for 28 days; type: functional; conditions: time 28 day
CT26 [8] = test: Antitumor activity against mouse CT26 cells xenografted in Balb/c mouse assessed as time of events at 30 mg/kg, po twice daily for 28 days in presence of ant-CTLA4 antibody; type: functional; conditions: time 28 day
CT26 [9] = test: Antitumor activity against mouse CT26 cells xenografted in Balb/c mouse assessed as tumor growth delay at 30 mg/kg, po twice daily for 28 days in presence of ant-CTLA4 antibody; type: functional; conditions: time 28 day

## CC(C)c1cnc(-c2cc(Cl)ccc2F)cc1Nc1ccncc1C(=O)NC(CO)CO [PF-06952229]
MC-38 [1]
  inhibition: Active
MC-38 [2]
  Activity: Active
4T1 [3]
  inhibition in vivo at 30 mg/kg: 18%
4T1 [4]
  inhibition in vivo at 30 mg/kg: 41%
4T1 [5]
  inhibition in vivo at 30 mg/kg: 29.5%
CT26 [6]
  Time: 33.8 days
CT26 [7]
  Activity: 18%
CT26 [8]
  Time: 59 days
CT26 [9]
  Activity: 106%
